Patent publication US10233202B2, “Tenofovir monobenzyl ester phosphamide prodrug, preparation method and use thereof” (JIANGSU TASLY DIYI PHARMACEUTICAL CO., LTD., priority 2015, dated 2019)
Where a name gives a salt, the structure may show the parent alone. Read-outs that look alike come from different tables or passages of the source.

What was measured:
in vitro = type: cell-based; settings: human, HepG2.2.15 cells; for CC50: Cell-titer Blue on 8th day, Table 3
Procedure: (§1) The concentration of HBV DNA in the HepG2.2.15 cell supernatant was detected through the real-time fluorescence quantitative PCR (qPCR) method to determine the anti-HBV activity of the compound in the HepG2.2.15 cells, and the effect of the testing compounds to the HepG2.2.15 cell activity was detected through Cell-titer Blue.
(§2) 8.1. Dilution of the compounds: the initial concentration of each compound in the in vitro anti-HBV activity test was 1 μM, with 3-fold serial dilution to 8 concentrations; the initial concentration of each compound in the cytotoxicity test was 100 μM, with 3-fold serial dilution to 8 concentrations; DMSO was used for the dilution of the compound mother liquor. The initial concentrations of the reference compound TDF for the anti-HBV activity test in vitro and the cytotoxicity test were all set at 0.2 μM, with 3-fold serial dilution to 8 concentrations.
(§3) 8.3. Treatment of the cells in the cell viability test: the HepG2.2.15 cells were plated in the 96-well plate (4×10^4 cells/well), and cultured overnight at 37° C. in 5% CO2. On 2nd day, fresh culture solutions containing compounds of different concentrations were added to the culture wells. See Table 3 for the compound distribution. On 5th day, the used culture solutions in the culture wells were sucked and discarded, and fresh culture solutions containing compounds of different concentrations were added. On 8th day, Cell-titer Blue agent was added to each well, and the microplate reader was used to detect the fluorescence value of each well.
(§4) The cell viability percentage was calculated using the following formula: % cell viability=(fluorescence of sample−fluorescence of medium control)/(fluorescence of DMSO control−fluorescence of medium control)[…] 100%
(§5) 9.2 Test method: the test was carried out according to the procedure in example 1.

HepG2.2.15 cells = test: in vitro; type: cell-based; settings: comparative test, Table 4
Procedure: as §1, §2, §3, §4, §5

HIV-1 IIIB = test: In vitro anti-HIV activity test in MT-4 cells infected with HIV-1 IIIB (CellTiter Glo); type: cell-based
Procedure: 9.1. Dilution and concentrations of the compounds and the reference compound (CN01813161GS-7340, TDF) were the same as those in example 1.
9.2. In vitro anti-HIV activity test: after MT-4 cells were infected with 24 TCID50HIV-1 IIIB/1×10^5 cells (2.4 TCID50/well) at 37° C. for 1 hour, they were plated in the 96-well plate containing the compounds of different concentrations ([…]) and cultured at 37° C. in 5% CO2 for 5 days. CellTiter Glo was used to determine the activity to calculate the EC50 value.
(§6) 9.4. Data analysis and calculation of the inhibition percentage: the activity percentage was calculated using the following formula: Activity (%) =(Raw datacpd−AverageVC)/(AverageCC−AverageVC)*100Cell Viability (%)=Raw datacpd/AverageCC*100

[1] = Stability in the human liver S9; type: in vitro ADME; settings: human liver S9, 1 μM
Procedure: (§7) The following stability test were carried out according to the prior art, and the data of the stability test shown in the table were the residue percentages after the test compounds were incubated for different period of time under the test condition.

[2] = Stability in the simulated gastric fluid; type: in vitro ADME; settings: 10 μM
Procedure: as §7

[3] = Cell viability test in MT-4 cells (CellTiter Glo); type: cell-based; settings: human
Procedure: 9.3. Treatment of the cells in the cell viability test: parallel tests were carried out using the same method as that in 9.2, except that the 96-well plate containing the compounds of different concentrations were replaced with the blank 96-well plate, and CellTiter Glo was used to determine the cell viability to calculate the CC50 value.
as §6

HBV = test: Cell based anti-HBV activity test, HBV DNA in HepG2.2.15 cell supernatant by qPCR; settings: Hepatitis B virus
Procedure: as §2
8.2. Anti-HBV activity test in vitro: the HepG2.2.15 cells were plated in the 96-well plate (4×10^4 cells/well), and cultured overnight at 37° C. in 5% CO2. On second day, fresh culture solutions containing compounds of different concentrations were added to the culture wells. See Table 2 for the compound distribution. On 5th day, the used culture solutions in the culture wells were sucked and discarded, and fresh culture solutions containing compounds of different concentrations were added. On 8th day, the supernatant in the culture wells was collected for the extraction of HBV DNA in the supernatant. qPCR test was used to detect the concentration of HBV DNA content in the HepG2.2.15 supernatant.
8.4. Data analysis and calculation of the inhibition percentage and relative cell viability: The inhibition percentage was calculated using the following formula: % Inh.=[(HBV quantity of DMSO control−HBV quantity of sample)/HBV quantity of DMSO control]×100%
9.1 Drugs: the dilution method and concentrations of compound 3, the reference compound (CN201380030061.6, and the compound shown in claim 36 (abbreviation: compound 7), and the isomer thereof) were the same as those in example 1.
as §5

[4] = Stability in the human blood; type: in vitro ADME; settings: 2 μM
Procedure: as §7

hERG K-channel = hERG K-channel (Homo sapiens, UniProt Q12809); test: hERG manual whole-cell patch clamp in CHO cells (cardiotoxicity study); settings: IC50, hERG current, room temperature
Chain of hERG K-channel (Q12809 whole entry): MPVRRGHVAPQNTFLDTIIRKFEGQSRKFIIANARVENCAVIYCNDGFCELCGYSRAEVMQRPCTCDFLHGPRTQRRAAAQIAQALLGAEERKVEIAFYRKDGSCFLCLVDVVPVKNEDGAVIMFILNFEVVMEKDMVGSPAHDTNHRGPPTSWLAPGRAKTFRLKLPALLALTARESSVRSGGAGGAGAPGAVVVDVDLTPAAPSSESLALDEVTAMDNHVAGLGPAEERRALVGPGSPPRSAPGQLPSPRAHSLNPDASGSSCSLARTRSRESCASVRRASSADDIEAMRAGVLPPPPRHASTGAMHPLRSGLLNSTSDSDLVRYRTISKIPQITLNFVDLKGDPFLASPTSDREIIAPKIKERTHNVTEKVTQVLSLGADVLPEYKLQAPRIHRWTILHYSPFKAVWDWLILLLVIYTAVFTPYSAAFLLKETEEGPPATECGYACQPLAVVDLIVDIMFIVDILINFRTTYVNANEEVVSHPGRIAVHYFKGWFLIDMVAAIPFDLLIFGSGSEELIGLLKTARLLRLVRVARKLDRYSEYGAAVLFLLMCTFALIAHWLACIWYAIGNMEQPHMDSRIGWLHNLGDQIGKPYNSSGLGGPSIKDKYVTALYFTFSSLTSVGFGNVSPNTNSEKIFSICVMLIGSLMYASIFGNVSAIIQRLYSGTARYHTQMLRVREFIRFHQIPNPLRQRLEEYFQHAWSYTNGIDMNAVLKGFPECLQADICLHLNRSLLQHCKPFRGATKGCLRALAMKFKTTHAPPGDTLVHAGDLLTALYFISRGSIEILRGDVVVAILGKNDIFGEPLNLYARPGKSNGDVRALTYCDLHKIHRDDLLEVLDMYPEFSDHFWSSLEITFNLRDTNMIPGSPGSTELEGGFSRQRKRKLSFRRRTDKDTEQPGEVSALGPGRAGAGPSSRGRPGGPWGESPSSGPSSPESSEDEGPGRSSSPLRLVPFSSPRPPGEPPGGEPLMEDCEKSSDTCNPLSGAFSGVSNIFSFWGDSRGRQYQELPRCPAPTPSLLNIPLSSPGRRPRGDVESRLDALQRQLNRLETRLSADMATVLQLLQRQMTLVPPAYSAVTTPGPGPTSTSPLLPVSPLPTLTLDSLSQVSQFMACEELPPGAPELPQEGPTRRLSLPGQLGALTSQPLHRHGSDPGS
Procedure: The CHO cells obtained from AVivaBiosciences that could stably express the hERG K-channel were used in the test, and the cells were incubated at 37° C. in 5% CO2 and under constant humidity.
The final concentration of DMSO in the extracellular fluid was not higher than 0.30%.
The whole-cell patch clamp technique was used on the Multiclamp patch-clamp amplifier to test the compound at room temperature, the output signal was digitalized using the DIgiDAta 1440 A/D-D/A plate, and the Pclamp10 software was used for the control of the recording. The minimum sealing resistance was set at 500 MOh/ms, and the minimum specific hERG current was set at 0.4 nA for quality control.
Clampfit (V10.2, Molecular Devices), Excel 2003 and GraphPad Prism 5.0 were used for the data analysis. The calculation formula of the current: I/Icontrol=Bottom+(Top−Bottom)/(1+10^((LogIC50−Log C)*Hillslope

[5] = Stability in the simulated intestinal fluid; type: in vitro ADME; settings: 10 μM
Procedure: as §7

[6] = oral, after intestinal absorption; cited from earlier work
[7] = Human immunodeficiency virus 1, MT4, 120 h, MT-4 cells infected with HIV-1 IIIB, 5 days, read-out: EC50
[8] = HepG2.2.15, HepG2.2.15 cells, comparative test, Table 4, read-out: EC50

Structure (SMILES) | EC50 (HIV-1 IIIB; [7]) [µM] | CLlint(s9) [1] [µL/min/mg] | half-life at 1 μM [1] [min] | Remaining (T = 60 min) [1] [%] | CLlint(s9) ([1]; scaled per kg) [mL/min/kg] | % 0 min (residue percentage) [2] [%] | % 60 min (residue percentage) [2] [%] | % 120 min (residue percentage) [2] [%] | % 360 min (residue percentage) [2] [%] | % 1440 min (residue percentage) [2] [%] | CC50 at 5 days [3] [µM] | % 0 min (residue percentage) [4] [%] | % 10 min (residue percentage) [4] [%] | % 30 min (residue percentage) [4] [%] | % 60 min (residue percentage) [4] [%] | % 120 min (residue percentage) [4] [%] | IC50 (hERG K-channel) [µM] | % 0 min (residue percentage) [5] [%] | % 60 min (residue percentage) [5] [%] | % 120 min (residue percentage) [5] [%] | other results
CC(C)OC(=O)[C@H](C)N[P@@](=O)(CO[C@H](C)Cn1cnc2c(N)ncnc21)OCc1ccccc1 (single isomer, unassigned) [Compound 3a] | 0.00513 | 70.0 | 9.9 | 6 | 0.2464 | 100 | 85.40 | 58.07 | 14.41 | 0.00 | 22.5 | 100 | 97.4 | 98.9 | 97.8 | 94.5 | > 10 | 100 | 53.62 | 23.45 | CC50 (in vitro): > 100 µM; CC50 (HepG2.2.15 cells): > 100 µM; EC50 (HBV; [8]): 0.00339 µM; % 360 min (residue percentage) [5]: 1.26%; % 1440 min (residue percentage) [5]: 0.00%
CC(C)OC(=O)[C@H](C)N[P@](=O)(CO[C@H](C)Cn1cnc2c(N)ncnc21)OCc1ccccc1 (single isomer, unassigned) [Compound 3b] | 0.00986 | 68.6 | 10.1 | 9 | 0.2415 | 100 | 84.26 | 58.54 | 17.28 | 0.00 | 16.9 | 100 | 97.1 | 96.4 | 96.1 | 93.7 | > 30 | 100 | 51.07 | 20.20 | CC50 (in vitro): > 100 µM; CC50 (HepG2.2.15 cells): > 100 µM; EC50 (HBV; HepG2.2.15, HepG2.2.15 cells, HBV DNA in supernatant on 8th day, Table 3, read-out: EC50): < 0.01 µM; EC50 (HBV; [8]): 0.006 µM; % 360 min (residue percentage) [5]: 0.23%; % 1440 min (residue percentage) [5]: 0.00%
CC(C)OC(=O)[C@H](C)N[P@](=O)(CO[C@H](C)Cn1cnc2c(N)ncnc21)Oc1ccccc1 [GS-7340] | – | 211.0 | 3.3 | 4 | 0.7427 | 100 | 95.40 | 66.36 | 23.41 | 0.19 | 13.3 | 100 | 93.2 | 91.0 | 90.3 | 90.0 | > 10 | 100 | 30.09 | 6.22 | CC50 at 6 days (in vitro; comparative test, Table 4): > 100 µM; EC50 (HIV-1 IIIB; Human immunodeficiency virus 1, IIIB, MT4, 120 h): 0.0143 µM; EC50 (HBV; HepG2.2.15): 0.0178 µM; % 360 min (residue percentage) [5]: 0.06%; % 1440 min (residue percentage) [5]: 0.00%
CC(C)OC(=O)OCOP(=O)(CO[C@H](C)Cn1cnc2c(N)ncnc21)OCOC(=O)OC(C)C [TDF, Tenofovir Disoproxil Fumarate] | 0.017 | – | – | – | – | – | – | – | – | – | 21.3 | – | – | – | – | – | – | – | – | – | fraction excreted out of the body in original form [6]: ~80%; fraction metabolized and activated into the Tenofovir parent drug under the action of esterase [6]: less than 20%
